According to US20210155644A1, “CYCLOPENTENYL PURINE DERIVATIVE OR SALT THEREOF” (Fujifilm Corporation, priority 2018, published 2021):
Like-named read-outs stand apart in the source and are kept apart here.

Test system: adenovirus type 6 (ADV6)
Assay: Evaluation of anti-adenovirus activity: CRL-11516 cells infected with ADV6, anti-hexon staining, count of stained cells
Format: cell-based
Procedure: A system in which CRL-11516 cells (available from ATCC) were infected with adenovirus type 6 (hereinafter, referred to as ADV6) was constructed, and a test for evaluating the anti-adenovirus activity of the compound according to the embodiment of the present invention and the compound of Comparative Example was carried out using the system. The test for evaluating the anti-adenovirus activity was carried out according to the method described below.
CRL-11516 cells were added to a 96-well plate at a cell density of 1×10^4 cells/well and cultured at 37° C. for 24 hours. After the culture was completed, the cell culture liquid was removed, and a serial dilution (100 μL) of the compound according to the embodiment of the present invention or the compound of Comparative Example was added. ADV6 (corresponding to 50TCID50) was added thereto, followed by culturing at 37° C. for 48 hours.
After the culture was completed, the infected cells were stained using Adeno-X Rapid Titer Kit (manufactured by Takara Bio Inc.). 100% methanol was added thereto and the cells were fixed at −20° C. for 10 minutes. The plate was washed three times with phosphate buffered saline (hereinafter, referred to as PBS) and then Mouse Anti-Hexon Antibody was added thereto, followed by incubation at 37° C. for 1 hour. After the incubation was completed, the plate was washed three times with PBS, and Rat Anti-Mouse Antibody was added thereto, followed by incubation at 37° C. for 1 hour. After the incubation was completed, a mixed staining solution of Stable Peroxidase Buffer:DAB Substrate=10:1 was added thereto, followed by incubation at room temperature for 10 minutes for staining of the cells.
The number of dark brown-stained cells was counted under a microscope, and the concentration of the test drug that reduces the dark brown-stained cells by 50% was defined as EC50. EC50 values were calculated for the triplicate test results, and a mean value and a standard deviation thereof were determined.

[1] = Human mastadenovirus C, 48 h, CRL-11516 cells infected with ADV6, 48 hours culture, concentration reducing dark brown-stained cells by 50%, read-out: Anti-AdV activity EC50
[2] = CRL-11516 cells infected with ADV6, 48 hours culture, concentration reducing dark brown-stained cells by 50%, read-out: Anti-AdV activity EC50

| Molecule | EC50 [2] [nM] | further results |
| --- | --- | --- |
| CC(C)OC(=O)[C@H](C)N[P@@](=O)(OC[C@@H]1C=C[C@H](n2cnc3c(N4CCC4)nc(N)nc32)C1)Oc1ccccc1 [Example 2-2-37, isopropyl ((R)-(((1S,4R)-4-(2-amino-6-(azetidin-1-yl)-9H-purin-9-yl)cyclopent-2-en-1-yl)methoxy)(phenoxy)phosphoryl)-L-alaninate] |  | EC50 [1]: 10 to 100 nM |
| COC(=O)[C@H](C)NP(=O)(OC[C@@H]1C=C[C@H](n2cnc3c(OC)nc(N)nc32)C1)Oc1ccccc1 (stereo partly drawn) [Example 4-2-1, methyl ((((1 S,4R)-4-(2-amino-6-methoxy-9H-purin-9-yl)cyclopent-2-en-1-yl)methoxy)(phenoxy)phosphoryl)-L-alaninate] |  | EC50 [1]: 10 to 100 nM |
| COC(=O)[C@H](C)NP(=O)(OC[C@@H]1C=C[C@H](n2cnc3c(OC)nc(N)nc32)C1)Oc1ccccc1 (stereo partly drawn) [Example 4-2-2, methyl ((((1 S,4R)-4-(2-amino-6-methoxy-9H-purin-9-yl)cyclopent-2-en-1-yl)methoxy)(phenoxy)phosphoryl)-L-alaninate] | 10 to 100 |  |
| CC(C)OC(=O)[C@H](C)NP(=O)(OC[C@@H]1C=C[C@H](n2cnc3c(Cl)nc(N)nc32)C1)Oc1ccccc1 (stereo partly drawn) [Example 4-3-1, Isopropyl ((((1 S,4R)-4-(2-amino-6-chloro-9H-purin-9-yl)cyclopent-2-en-1-yl)methoxy)(phenoxy)phosphoryl)-L-alaninate] | 10 to 100 |  |
| CC(C)OC(=O)[C@H](C)NP(=O)(OC[C@@H]1C=C[C@H](n2cnc3c(Cl)nc(N)nc32)C1)Oc1ccccc1 (stereo partly drawn) [Example 4-3-2, Isopropyl ((((1 S,4R)-4-(2-amino-6-chloro-9H-purin-9-yl)cyclopent-2-en-1-yl)methoxy)(phenoxy)phosphoryl)-L-alaninate] | 100 to 1000 |  |
| COc1nc(N)nc2c1ncn2[C@H]1C=C[C@@H](COP(=O)(N[C@@H](C)C(=O)OC(C)C)Oc2ccccc2)C1 (stereo partly drawn) [Example 4-4-1, Isopropyl ((((1 S,4R)-4-(2-amino-6-methoxy-9H-purin-9-yl)cyclopent-2-en-1-yl)methoxy)(phenoxy)phosphoryl)-L-alaninate] | 10 to 100 |  |
| COc1nc(N)nc2c1ncn2[C@H]1C=C[C@@H](COP(=O)(N[C@@H](C)C(=O)OC(C)C)Oc2ccccc2)C1 (stereo partly drawn) [Example 4-4-2, Isopropyl ((((1 S,4R)-4-(2-amino-6-methoxy-9H-purin-9-yl)cyclopent-2-en-1-yl)methoxy)(phenoxy)phosphoryl)-L-alaninate] | 100 to 1000 |  |
| COC(=O)[C@H](C)NP(=O)(OC[C@@H]1C=C[C@H](n2cnc3c(Cl)nc(N)nc32)C1)Oc1ccc(Cl)cc1 (stereo partly drawn) [Example 4-5-1, methyl ((((1 S,4R)-4-(2-amino-6-chloro-9H-purin-9-yl)cyclopent-2-en-1-yl)methoxy)(4-chlorophenoxy)phosphoryl)-L-alaninate] |  | EC50 [1]: < 10 nM |
| COC(=O)[C@H](C)NP(=O)(OC[C@@H]1C=C[C@H](n2cnc3c(Cl)nc(N)nc32)C1)Oc1ccc(Cl)cc1 (stereo partly drawn) [Example 4-5-2, methyl ((((1 S,4R)-4-(2-amino-6-chloro-9H-purin-9-yl)cyclopent-2-en-1-yl)methoxy)(4-chlorophenoxy)phosphoryl)-L-alaninate] | 10 to 100 |  |
| COC(=O)[C@H](C)NP(=O)(OCCSC(=O)C(C)(C)C)OC[C@@H]1C=C[C@H](n2cnc3c(OC)nc(N)nc32)C1 (stereo partly drawn) [Example 4-6-1, ((((1S,4R)-4-(2-amino-6-methoxy-9H-purin-9-yl)cyclopent-2-en-1-yl)methoxy)(2-(pivaloylthio)ethoxy)phosphoryl)-L-alaninate] | < 10 |  |
| COC(=O)[C@H](C)NP(=O)(OCCSC(=O)C(C)(C)C)OC[C@@H]1C=C[C@H](n2cnc3c(OC)nc(N)nc32)C1 (stereo partly drawn) [Example 4-6-2, ((((1S,4R)-4-(2-amino-6-methoxy-9H-purin-9-yl)cyclopent-2-en-1-yl)methoxy)(2-(pivaloylthio)ethoxy)phosphoryl)-L-alaninate] | < 10 |  |
| COc1nc(N)nc2c1ncn2[C@H]1C=C[C@@H](COP(=O)(OCCSC(=O)C(C)(C)C)Oc2ccccc2)C1 (stereo partly drawn) [Example 4-7-1, S-(2-(((((1 S,4R)-4-(2-amino-6-methoxy-9H-purin-9-yl)cyclopent-2-en-1-yl)methoxy) (phenoxy)phosphoryl)oxy)ethyl) 2,2-dimethylpropanethioate] |  | EC50 (Human mastadenovirus C, 48 h, read-out: Anti-AdV activity EC50, CRL-11516 cells infected with ADV6, 48 hours culture, concentration reducing dark brown-stained cells by 50%): 10 to 100 nM |
| COc1nc(N)nc2c1ncn2[C@H]1C=C[C@@H](COP(=O)(OCCSC(=O)C(C)(C)C)Oc2ccccc2)C1 (stereo partly drawn) [Example 4-7-2, S-(2-(((((1 S,4R)-4-(2-amino-6-methoxy-9H-purin-9-yl)cyclopent-2-en-1-yl)methoxy) (phenoxy)phosphoryl)oxy)ethyl) 2,2-dimethylpropanethioate] |  | EC50 (read-out: Anti-AdV activity EC50, CRL-11516 cells infected with ADV6, 48 hours culture, concentration reducing dark brown-stained cells by 50%): 10 to 100 nM |
| COC(=O)[C@H](C)NP(=O)(OCCSC(=O)C(C)(C)CO)OC[C@@H]1C=C[C@H](n2cnc3c(Cl)nc(N)nc32)C1 (stereo partly drawn) [Example 5-1, methyl ((((1 S,4R)-4-(2-amino-6-chloro-9H-purin-9-yl)cyclopent-2-en-1-yl)methoxy)(2-((3-hydroxy-2,2-dimethylpropanoyl)thio)ethoxy)phosphoryl)-L-alaninate] |  | EC50 (Human mastadenovirus C, CRL-11516 cells infected with ADV6, 48 hours culture, concentration reducing dark brown-stained cells by 50%, read-out: Anti-AdV activity EC50): 100 to 1000 nM |
| COc1cccc(OP(=O)(N[C@@H](C)C(=O)OC(C)C)OC[C@@H]2C=C[C@H](n3cnc4c(OC)nc(N)nc43)C2)c1 (stereo partly drawn) [Example 6-2-7, isopropyl ((((1S,4R)-4-(2-amino-6-methoxy-9H-purin-9-yl)cyclopent-2-en-1-yl)methoxy)(3-methoxyphenoxy)phosphoryl)-L-alaninate] |  | EC50 [1]: 10 to 100 nM |
| COc1nc(N)nc2c1ncn2[C@H]1C=C[C@@H](COP(=O)(N[C@@H](C)C(=O)OC(C)C)Oc2ccc3c(c2)OCO3)C1 (stereo partly drawn) [Example 6-2-21, isopropyl ((((1S,4R)-4-(2-amino-6-methoxy-9H-purin-9-yl)cyclopent-2-en-1-yl)methoxy)(benzo[d][1,3]dioxolo-5-yloxy)phosphoryl)-L-alaninate] | 10 to 100 |  |
| COCCOc1cccc(OP(=O)(N[C@@H](C)C(=O)OC(C)C)OC[C@@H]2C=C[C@H](n3cnc4c(OC)nc(N)nc43)C2)c1 (stereo partly drawn) [Example 6-2-23, isopropyl ((((1S,4R)-4-(2-amino-6-methoxy-9H-purin-9-yl)cyclopent-2-en-1-yl)methoxy)(3-(2-methoxyethoxy)phenoxy)phosphoryl)-L-alaninate] |  | EC50 [1]: < 10 nM |
| COc1nc(N)nc2c1ncn2[C@H]1C=C[C@@H](COP(=O)(N[C@@H](C)C(=O)OC(C)C)Oc2cccc3ccccc23)C1 (stereo partly shown) [Example 6-2-25] | < 10 |  |
| Isopropyl ((((1S,4R)-4-(2-amino-6-methoxy- 9H-purin-9-yl)cyclopent-2-en-1- yl)methoxy)(naphthalen-1-yloxy) phosphoryl)-L-alaninate [Example 6-2-26] | 10 to 100 |  |
